Read-outs that look alike come from different tables or passages of the source.
Key:
NR2B receptor = biological target: T1, NR2B receptor (Rattus norvegicus, UniProt P35439+Q00960); experiment: NR2B Binding Assay; details: for IC50: forebrain P2 membranes of male CD rats, 5 nM [3H] NR2B ligand
T1 construct: Membranes were prepared by homogenization of forebrain of male CD rats; from tissue; host or cells: forebrain of male CD rats (P2 membrane)
Procedure: The activity of the cycloalkylene amide compounds of the present invention, as NR2B antagonists, is determined by their ability to inhibit the binding of NR2B subunit at its receptor sites employing radioactive ligands.
The NR^2B antagonist activity of the cycloalkylene amide compounds is evaluated by using the standard assay procedure described in, for example, J. Pharmacol., 331, pp 117-126, 1997. This method essentially involves determining the concentration of the individual compound required to reduce the amount of radiolabelled NR2B ligands by 50% at their receptor sites, thereby affording characteristic IC50 values for each compound tested. More specifically, the assay is carried out as follows.
Membranes were prepared by homogenization of forebrain of male CD rats weighing between 170˜190 g by using glass-Teflon homogenizer in 0.32 M sucrose at 4° C. The crude nuclear pellet was removed by centrifugation at 1000×g for 10 min, and the supernatant centrifuged at 17000×g for 25 min. The resulting pellet was resuspended in 5 mM Tris acetate pH 7.4 at 4° C. for 10 min to lyse cellular particles and again centrifuged at 17000×g. The resulting pellet (P2 membrane) was washed twice in Tris acetate, resuspended at 5.5 mg protein/ml and stored at −20° C. until use. All the manipulation was done on ice, and stock solution and equipment were kept on ice at all time.
For the saturation assay, receptor saturation was determined by incubating [^3H]-1-[(1S*,2S*)-2-hydroxy-2-(4-hydroxyphenyl)-1-methylethyl]-4-phenylpiperidin-4-ol and 50 μg protein of P2 membrane for 60 minutes at room temperature in a final 100 μl of incubation buffer (50 mM Tris HCl, pH7.4). Total and non-specific bindings (in the presence of 10 μM of unlabeled 1-[(1S*,2S*)-2-hydroxy-2-(4-hydroxyphenyl)-1-methylethyl]-4-phenylpiperidin-4-ol) were determined in a range of [^3H]-1-[(1S*,2S*)-2-hydroxy-2-(4-hydroxyphenyl)-1-methylethyl]-4-phenylpiperidin-4-ol concentrations (0.625 nM to 60 nM).
For the competition assay, test compounds were incubated in duplicate with 5 nM [^3H]-1-[(1S*,2S*)-2-hydroxy-2-(4-hydroxyphenyl)-1-methylethyl]-4-phenylpiperidin-4-ol and 50 μg protein of P2 membrane for 60 minutes at room temperature in a final 100 μl of 50 mM Tris HCl buffer (pH7.4). Nonspecific binding was determined by 10 μM of unlabeled 1-[(1S*,2S*)-2-hydroxy-2-(4-hydroxyphenyl)-1-methylethyl]-4-phenylpiperidin-4-ol (25 μl). The saturation derived KD gained in saturation assay was used for all Ki calculations.
All incubations were terminated by rapid vacuum filtration over 0.2% polyethyleneimine soaked Whatman GF/B glass fibre filter paper using a SKATRON cell harvester followed by three washes with ice-cold filtration buffer (5 mM Tris HCl, pH 7.4.). Receptor-bound radioactivity was quantified by liquid scintillation counting using Packard LS counter. Competition assays were performed by counting Wallac GF/B filters on Betaplate scintillation counter (Wallac).

Human HERG [1] = biological target: T2, Human HERG (Homo sapiens, UniProt Q12809); experiment: Human Dofetilide Binding Assay
Procedure: (§1) Human HERG transfected HEK293S cells were prepared and grown in-house. The collected cells were suspended in 50 mM Tris-HCl (pH 7.4 at 4° C.) and homogenized using a hand held Polytron PT 1200 disruptor set at full power for 20 sec on ice. The homogenates were centrifuged at 48,000×g at 4° C. for 20 min. The pellets were then resuspended, homogenized, and centrifuged once more in the same manner. The final pellets were resuspended in an appropriate volume of 50 mM Tris-HCl, 10 mM KCl, 1 mM MgCl2 (pH 7.4 at 4° C.), homogenized, aliquoted and stored at −80° C. until use. An aliquot of membrane fractions was used for protein concentration determination using BCA protein assay kit (PIERCE) and ARVOsx plate reader (Wallac).
(§2) Binding assays were conducted in a total volume of 200 μl in 96-well plates. Twenty μl of test compounds were incubated with 20 μl of [^3H]-dofetilide (Amersham, final 5 nM) and 160 μl of membrane homogenate (25 μg protein) for 60 minutes at room temperature. Nonspecific binding was determined by 10 μM dofetilide at the final concentration. Incubation was terminated by rapid vacuum filtration over 0.5% presoaked GF/B Betaplate filter using Skatron cell harvester with 50 mM Tris-HCl, 10 mM KCl, 1 mM MgCl2, pH 7.4 at 4° C. The filters were dried, put into sample bags and filled with Betaplate Scint. Radioactivity bound to filter was counted with Wallac Betaplate counter.

Human HERG [2] = biological target: T2, Human HERG
Procedure: as §1, §2

T1 sequence (Q00960 27-1482, other chains not shown): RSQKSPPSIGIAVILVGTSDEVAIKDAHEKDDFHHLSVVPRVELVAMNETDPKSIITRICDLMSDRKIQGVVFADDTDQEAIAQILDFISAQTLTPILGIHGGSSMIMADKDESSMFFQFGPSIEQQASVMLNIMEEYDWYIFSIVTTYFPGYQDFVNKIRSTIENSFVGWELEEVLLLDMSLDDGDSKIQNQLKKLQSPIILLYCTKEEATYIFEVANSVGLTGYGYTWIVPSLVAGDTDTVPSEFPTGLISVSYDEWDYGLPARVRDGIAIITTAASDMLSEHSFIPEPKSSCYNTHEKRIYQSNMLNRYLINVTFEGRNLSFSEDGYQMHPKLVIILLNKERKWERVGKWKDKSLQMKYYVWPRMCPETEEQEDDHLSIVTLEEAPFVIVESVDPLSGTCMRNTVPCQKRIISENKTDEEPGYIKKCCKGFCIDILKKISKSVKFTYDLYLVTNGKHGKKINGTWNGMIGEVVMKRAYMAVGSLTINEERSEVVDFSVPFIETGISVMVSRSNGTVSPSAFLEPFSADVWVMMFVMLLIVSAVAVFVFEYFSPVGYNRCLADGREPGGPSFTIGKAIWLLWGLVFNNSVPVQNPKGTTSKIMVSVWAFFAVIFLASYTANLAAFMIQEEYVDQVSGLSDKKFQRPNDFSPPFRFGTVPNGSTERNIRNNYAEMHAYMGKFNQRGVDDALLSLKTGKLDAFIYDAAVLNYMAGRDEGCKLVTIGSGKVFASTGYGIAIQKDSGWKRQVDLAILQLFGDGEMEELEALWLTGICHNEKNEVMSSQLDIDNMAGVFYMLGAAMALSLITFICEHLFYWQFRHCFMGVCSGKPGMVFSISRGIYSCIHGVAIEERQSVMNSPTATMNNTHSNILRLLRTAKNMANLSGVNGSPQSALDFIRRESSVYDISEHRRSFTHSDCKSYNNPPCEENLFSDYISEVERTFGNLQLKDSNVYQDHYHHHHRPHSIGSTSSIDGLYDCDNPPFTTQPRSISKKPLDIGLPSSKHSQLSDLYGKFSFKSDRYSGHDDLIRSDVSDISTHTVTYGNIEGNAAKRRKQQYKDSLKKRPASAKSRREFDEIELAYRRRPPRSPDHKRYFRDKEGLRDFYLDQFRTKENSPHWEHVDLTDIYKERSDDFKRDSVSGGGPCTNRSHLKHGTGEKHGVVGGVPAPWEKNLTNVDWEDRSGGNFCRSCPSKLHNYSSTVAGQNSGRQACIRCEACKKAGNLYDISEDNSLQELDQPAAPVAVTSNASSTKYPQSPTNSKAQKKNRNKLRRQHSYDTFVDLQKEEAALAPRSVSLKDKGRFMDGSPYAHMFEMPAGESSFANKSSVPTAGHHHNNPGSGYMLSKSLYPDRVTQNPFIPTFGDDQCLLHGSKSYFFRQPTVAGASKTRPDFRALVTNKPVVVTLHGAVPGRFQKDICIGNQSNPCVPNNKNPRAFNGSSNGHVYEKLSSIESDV
T2 sequence (Q12809 whole entry): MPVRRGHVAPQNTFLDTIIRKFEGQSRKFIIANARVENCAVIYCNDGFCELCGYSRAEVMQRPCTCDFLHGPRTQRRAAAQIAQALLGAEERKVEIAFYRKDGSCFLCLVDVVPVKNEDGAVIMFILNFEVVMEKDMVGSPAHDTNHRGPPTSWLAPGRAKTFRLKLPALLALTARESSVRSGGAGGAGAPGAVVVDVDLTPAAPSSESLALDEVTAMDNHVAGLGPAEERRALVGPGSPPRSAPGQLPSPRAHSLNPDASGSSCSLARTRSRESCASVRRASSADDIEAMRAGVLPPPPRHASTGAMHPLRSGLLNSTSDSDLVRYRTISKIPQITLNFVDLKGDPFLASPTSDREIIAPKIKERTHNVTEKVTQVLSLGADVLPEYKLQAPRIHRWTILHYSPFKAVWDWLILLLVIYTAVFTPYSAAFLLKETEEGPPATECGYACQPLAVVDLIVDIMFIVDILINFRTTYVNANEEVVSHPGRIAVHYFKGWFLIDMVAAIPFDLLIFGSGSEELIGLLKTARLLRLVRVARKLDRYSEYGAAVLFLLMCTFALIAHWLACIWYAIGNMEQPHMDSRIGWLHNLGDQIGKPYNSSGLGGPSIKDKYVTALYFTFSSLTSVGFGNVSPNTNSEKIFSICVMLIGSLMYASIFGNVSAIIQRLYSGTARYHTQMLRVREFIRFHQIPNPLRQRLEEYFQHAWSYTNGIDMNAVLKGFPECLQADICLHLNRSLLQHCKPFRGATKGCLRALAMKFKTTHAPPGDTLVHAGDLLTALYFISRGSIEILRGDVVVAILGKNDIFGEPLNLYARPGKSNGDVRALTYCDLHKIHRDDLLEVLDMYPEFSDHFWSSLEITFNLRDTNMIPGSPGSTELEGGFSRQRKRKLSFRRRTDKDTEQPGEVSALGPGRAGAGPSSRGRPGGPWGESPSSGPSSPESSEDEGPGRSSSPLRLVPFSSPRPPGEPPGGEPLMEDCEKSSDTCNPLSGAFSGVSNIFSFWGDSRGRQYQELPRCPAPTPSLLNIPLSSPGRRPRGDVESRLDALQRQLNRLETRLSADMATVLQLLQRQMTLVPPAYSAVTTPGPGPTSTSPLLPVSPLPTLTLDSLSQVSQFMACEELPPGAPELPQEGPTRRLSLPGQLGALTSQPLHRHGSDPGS

| Structure (SMILES) | IC50 (NR2B receptor) | melting point | Ki (NR2B receptor; competition assay, rat forebrain P2 membranes, read-out: Ki value, binding affinity for the NR2B receptor) | IC50 (Human HERG [1]) | IC50 (Human HERG [2]) |
| --- | --- | --- | --- | --- | --- |
| O=C(NC[C@]1(O)CC[C@H](COc2ccc(F)cc2)CC1)c1ccc(O)cc1 [Example 9, N-({trans-4-[(4-Fluorophenoxy)methyl]-1-hydroxcyclohexyl}methyl)-4-hydroxybenzamide] | 7.5 nM | 176.4 °C | – | 26300 nM | – |
| O=C(NC[C@]1(O)CC[C@H](COc2cccc(F)c2)CC1)c1ccc(O)cc1 [Example 10, N-({trans-4-[(3-Fluorophenoxy)methyl]-1-hydroxycyclohexyl}methyl)-4-hydroxybenzamide] | 12 nM | 186 °C | – | 25800 nM | – |
| O=C(NC[C@]1(O)CC[C@H](COc2cc(F)cc(F)c2)CC1)c1ccc(O)cc1 [Example 13, N-({trans-4-[(3,5-Difluorophenoxy)methyl]-1-hydroxycyclohexyl}methyl)-4-hydroxybenzamide] | 30 nM | 102.4 °C | – | 62600 nM | – |
| O=C(NC[C@]1(O)CC[C@H](COc2cccc(Cl)c2)CC1)c1ccc(O)cc1 [Example 15, N-({trans-4-[(3-Chlorophenoxy)methyl]-1-hydroxycyclohexyl}methyl)-4-hydroxybenzamide] | 21 nM | 164.9 °C | – | 20700 nM | – |
| O=C(NC[C@]1(O)CC[C@H](COc2ccc(Cl)cc2)CC1)c1ccc(O)cc1 [Example 16, N-({trans-4-[(4-Chlorophenoxy)methyl]-1-hydroxycyclohexyl}methyl)-4-hydroxybenzamide] | 19.8 nM | 208.2 °C | – | > 100000 nM | – |
| Cc1cccc(OC[C@H]2CC[C@@](O)(CNC(=O)c3ccc(O)cc3)CC2)c1 [Example 18, 4-Hydroxy-N-({trans-1-hydroxy-4-[(3-methylphenoxy)methyl]cyclohexyl}methyl)benzamide] | 15.2 nM | 201.4 °C | – | > 100000 nM | – |
| Cc1ccc(OC[C@H]2CC[C@@](O)(CNC(=O)c3ccc(O)cc3)CC2)cc1 [Example 19, 4-Hydroxy-N-({trans-1-hydroxy-4-[(4-methylphenoxy)methyl]cyclohexyl}methyl)benzamide] | 7.7 nM | 203.1 °C | – | > 100000 nM | – |
| O=C(NC[C@]1(O)CC[C@H](COCc2ccccc2)CC1)c1ccc(O)cc1 [Example 21, N-({trans-4-[(Benzyloxy)methyl]-1-hydroxycyclohexyl}methyl)-4-hydroxybenzamide] | 11.4 nM | 165.7 °C | – | > 100000 nM | – |
| O=C(NC[C@]1(O)CC[C@H](COCc2cccc(F)c2)CC1)c1ccc(O)cc1 [Example 23, N-[(trans-4-{[(3-Fluorobenzyl)oxy]methyl}-1-hydroxycyclohexyl)methyl]-4-hydroxybenzamide] | 28.6 nM | 167.6 °C | – | > 100000 nM | – |
| O=C(NC[C@]1(O)CC[C@H](COCc2ccc(F)cc2)CC1)c1ccc(O)cc1 [Example 24, N-[(trans-4-{[(4-Fluorobenzyl)oxy]methyl}-1-hydroxycyclohexyl)methyl]-4-hydroxybenzamide] | 21.8 nM | 167.6 °C | – | 97000 nM | – |
| O=C(NC[C@]1(O)CC[C@@H](Oc2ccc(Cl)cc2)CC1)c1ccc(O)c(F)c1 [Example 34, N-{[cis-4-(4-Chlorophenoxy)-1-hydroxycyclohexyl]methyl}-3-fluoro-4-hydroxybenzamide] | 14.7 nM | 168.1 °C | – | > 30000 nM | – |
| O=C(NCC1(O)CCC(COCc2cccc(F)c2)CC1)c1ccc(O)c(F)c1 (stereo not drawn) [Example 50, 3-Fluoro-N-[(trans-4-{[(3-fluorobenzyl)oxy]methyl}-1-1-hydroxycyclohexyl)methyl]-hydroxybenzamide] | 27.5 nM | – | – | – | > 100000 nM |
| O=C(NC[C@]1(O)CC[C@H](COCc2ccc(F)cc2)CC1)c1ccc(O)c(F)c1 [Example 64, 3-Fluoro-N-[(trans-4-{[(4-fluorobenzyl)oxy]methyl}-1-hydroxycyclohexyl)methyl]-4-hydroxybenzamide] | 26.5 nM | 155.9 °C | – | > 100000 nM | – |
| Cc1ccc(OC[C@H]2CC[C@@](O)(CNC(=O)c3ccc(O)cc3)CC2)nc1 [Example 67, 4-Hydroxy-N-[(trans-1-hydroxy-4-{[(5-methylpyridin-2-yl)oxy]methyl}cyclohexyl)methyl]benzamide] | 16.9 nM | 196.2 °C | – | > 30000 nM | – |
| O=C(NC[C@H]1CC[C@@H](COc2ccccc2)CC1)c1cn[nH]c1 [Example 73, N-{[cis-4-(Phenoxymethyl)cyclohexyl]methyl}-1H-pyrazole-4-carboxamide] | 15.4 nM | 150.1 °C | – | > 30000 nM | – |
| O=C(NC[C@H]1CC[C@@H](COc2ccc(Cl)c(F)c2)CO1)c1cn[nH]c1 [Example 129, N-({(2R,5R)-5-[(4-Chloro-3-fluorophenoxy)methyl]tetrahydro-2H-pyran-2-yl}methyl)-1H-pyrazole-4-carboxamide] | 10.3 nM | – | – | > 30000 nM | – |

Now from value to molecule, other results behind:

| IC50 (NR2B receptor) | melting point | Ki (NR2B receptor; competition assay, rat forebrain P2 membranes, read-out: Ki value, binding affinity for the NR2B receptor) | Structure (SMILES) | IC50 (Human HERG [1]) | IC50 (Human HERG [2]) |
| --- | --- | --- | --- | --- | --- |
| 8.5 nM | 185 °C | 6.2 nM | O=C(NC[C@]1(O)CC[C@H](COc2ccccc2F)CC1)c1ccc(O)cc1 [Example 11, N-({trans-4-[(2-Fluorophenoxy)methyl]-1-hydroxycyclohexyl}methyl)-4-hydroxybenzamide] | > 100000 nM | – |
| 23.4 nM | 189.1 °C | – | Cc1ccccc1OC[C@H]1CC[C@@](O)(CNC(=O)c2ccc(O)cc2)CC1 [Example 17, 4-Hydroxy-N-({trans-1-hydroxy-4-[(2-methylphenoxy)methyl]cyclohexyl}methyl)benzamide] | > 100000 nM | – |
| 11 nM | 174.3 °C | – | O=C(NC[C@]1(O)CC[C@H](COCc2ccccc2F)CC1)c1ccc(O)cc1 [Example 22, N-[(trans-4-{[(2-Fluorobenzyl)oxy]methyl}-1-hydroxycyclohexyl)methyl]-4-hydroxybenzamide] | > 100000 nM | – |
| 25.5 nM | 162.9 °C | – | O=C(NC[C@]1(O)CC[C@H](OCc2ccccc2F)CC1)c1ccc(O)cc1 [Example 48, N-({trans-4-[(2-Fluorobenzyl)oxy]-1-hydroxycyclohexyl}methyl)-4-hydroxybenzamide] | > 100000 nM | – |
| 30.2 nM | 175.1 °C | – | O=C(NC[C@]1(O)CC[C@H](CCOc2ccccc2F)CC1)c1cn[nH]c1 [Example 56, N-({trans-4-[2-(2-Fluorophenoxy)ethyl]-1-hydroxycyclohexyl}methyl)-1H-pyrazole-4-carboxamide] | > 100000 nM | – |
| 18.2 nM | 162.5 °C | – | O=C(NC[C@]1(O)CC[C@H](COCc2ccccc2)CC1)c1ccc(O)c(F)c1 [Example 60, N-({trans-4-[(Benzyloxy)methyl]-1-hydroxycyclohexyl}methyl)-3-fluoro-4-hydoxybenzamide] | > 100000 nM | – |
| 9.1 nM | 183.5 °C | – | O=C(NC[C@]1(O)CC[C@H](COc2ccccc2)CC1)c1ccc(O)c(F)c1 [Example 62, 3-Fluoro-4-hydroxy-N-{[trans-1-hydroxy-4-(phenoxymethyl)cyclohexyl]methyl}benzamide] | > 30000 nM | – |
| 6.2 nM | 164 °C | – | O=C(NC[C@]1(O)CC[C@H](CCOc2ccccc2)CC1)c1ccc(O)c(F)c1 [Example 63, 3-Fluoro-4-hydroxy-N-{[trans-1-hydroxy-4-(2-phenoxyethyl)cyclohexyl]methyl}benzamide] | > 30000 nM | – |
| 12.6 nM | 181.6 °C | – | O=C(NC[C@]1(O)CC[C@H](COc2ccc(F)cc2)CC1)c1ccc(O)c(F)c1 [Example 66, 3-Fluoro-N-({trans-4-[(4-fluorophenoxy)methyl]-1-hydroxycyclohexyl}methyl)-4-hydroxybenzamide] | > 100000 nM | – |

Source: patent US20070167452A1, “Therapeutic amide derivatives” (PFIZER, INC., priority 2004, published 2007)
